Literature values in patent US12582625B2, “Methods for treating neuroblastoma” (priority 2015, dated 2026).

What was measured:
[1] = tested on: tumors harboring Ki-ras mutations; conditions: AOM-treated rats, reduced from 90% (Singh et al., 1994); cited from earlier work
[2] = cited from earlier work
[3] = human, in vivo; cited from earlier work
[4] = in vivo; cited from earlier work

For `CN1C(C(=O)Nc2ccccn2)=C(O)c2ccccc2S1(=O)=O` [piroxicam, 4 hydroxy-2-methyl-N-2-pyridyl-2H-1,2-benzothiazine-3-carboxamide 1,1-dioxide], the “tumors harboring Ki-ras mutations” value [1] is listed as 25%.

In the case of `CC1=C(CC(=O)O)c2cc(F)ccc2/C1=C\c1ccc([S+](C)[O-])cc1` (stereo not shown) [sulindac, (Z)-5-fluoro-2-methyl-1-((4-(methylsulfinyl)phenyl)methylene)-1H-chemical indene-3-acetic acid], the drug absorbed ([2]; after oral administration) is listed as “about 90%”, the “time to peak plasma levels” value ([2]; fasting patients) is listed as “about 2 hours” and the “patients with mild gastrointestinal effects” value [3] is listed as roughly 20%. For the same compound, the “patients with skin rash and pruritus” value [3] was 5%.

For `Cc1ccc(-c2cc(C(F)(F)F)nn2-c2ccc(S(N)(=O)=O)cc2)cc1` [celecoxib, 4-[5-(4-Methylphenyl)-3-(trifluoromethyl)pyrazol-1-yl]benzenesulfonamide], the “increase in rates of heart and blood vessel disease” value [4] is listed as 30% and the “risk of gastrointestinal side effects” value [4] is listed as “greater than 80%”.
